US20240316147A1, “PHARMACEUTICAL COMPOSITION COMPRISING AN APL TYPE PEPTIDE” (CENTRO DE INGENIERIA GENÉTICA Y BIOTECNOLOGIA, priority 2017, published 2024)
“Also recorded” adds a separate entry of the source. Where no end group is shown, it is not given here.

Assays:
Format in all cases: physicochemical
[1] = Molecular exclusion chromatography-HPLC of the peptide in water, PBS and sucrose; conditions: dissolved in water (control)
Source text: FIG. 3. Molecular exclusion chromatography—HPLC of the peptide of Seq ID No. 1 dissolved in water (A), in phosphate buffered saline (PBS) (B) and in sucrose (C).
In PBS the peptide eluted in a shorter retention time, compared to the sample dissolved in water and in sucrose solution.

[2] = Solubility of the peptide in buffers and excipients, determined by RP-HPLC
Experimental: Different ionic species, pH and excipients were evaluated, to achieve the total solubility of the peptide, and a high chemical stability. Solubility of peptide was evaluated with different excipients, which included different ionic salts, sugars, polyols, amino acids and detergents.
First stage of the formulation development included the evaluation of buffer species influence and pH on chemical and physical stability of the peptide.

[3] = Stability of the peptide in 50 mM sodium phosphate buffer pH 7.4 at 37° C. (RP-HPLC, mass spectrometry)
Experimental: FIG. 1. Chromatographic profile of APL-type peptide identified as Seq ID No. 1 dissolved in 50 mM sodium phosphate buffer, pH 7.4. The profile was obtained by reverse phase chromatography (RP-HPLC), (A) time 0, (B) 15 days of storage at 37° C.
APL type peptide was obtained by chemical synthesis. […] To study the causes of such effect, peptide was dissolved in that buffer and stored at 37° C. for 15 days. Subsequently, several aliquots were analyzed periodically by RP-HPLC. Presence of contaminating species was verified, these were purified and analyzed by mass spectrometry, and several fractions were identified that could correspond to degradations.
In order to accelerate the degradation, peptide was incubated under stress conditions that allow the possible degraded species of the peptide to be obtained fast and in high proportions. Fractions collected after RP-HPLC were characterized by mass spectrometry.

[4] = Effect of pH on concentration and purity of the peptide in 50 mM sodium acetate buffer (RP-HPLC); conditions: 2.5 mg/mL in 50 mM sodium acetate buffer, pH 3.0, 4.0, 5.0; 4° C. or 37° C., 15 days
Experimental: FIG. 4. Effect of pH on concentration of peptide identified as Seq ID No. 1, in samples formulated and stored at 4° C. (A) and at 37° C. (B).
FIG. 5. Effect of pH on the purity of the peptide identified as Seq ID No. 1, in samples formulated and stored at 37° C.
Three pH values were analyzed: 3.0; 4.0 and 5.0. Samples were filtered and stored at 4° C. or at 37° C., for 15 days. Evaluation of stability and concentration of peptide was carried out by RP-HPLC. Results of concentration of peptide stored at 4° C. or at 37° C., respectively, are shown in FIGS. 4A and 4B, respectively. […] At 37° C., precipitation process is accelerated.
Chemical integrity of peptide (expressed as % purity in RP-HPLC) was greater than 95%, for the samples formulated in three pH values, when these were stored at 4° C., for 15 days.

solubility of peptide [1]: good solubility
solubility of peptide ([2]; in other ionic species: sodium citrate, sodium glutamate and Tris-HCl): very poorly soluble
solubility of peptide ([2]; in solutions of sucrose or trehalose, peptide 1-10 mg/mL): highest solubility
solubility of peptide ([2]; sodium acetate buffer (acetic acid and sodium hydroxide), 10-70 mM): best solubilized the peptide
degraded species identified by mass spectrometry (fractions 1, 2 and 4) ([3]; 50 mM sodium phosphate buffer pH 7.4, 15 days at 37° C.): deamidated variants of the peptide
stability of peptide in solution ([3]; 50 mM sodium phosphate buffer, pH 7.4): progressively destabilized
physical stability of peptide [4]: greater at pH 3.0
Sequence: SIDLKDKYKNIGAKLVQLVANNTNEEA [peptide identified as Seq ID No. 1]
solubility of peptide ([2]; in sodium phosphate buffer (50 mM, pH 7.4)): very poorly soluble; also recorded: poorly soluble
